# Measured values published in the NIST ThermoML archive (doi:10.1021/je400004j).
# ± gives the expanded uncertainty stated by the source.
# Legend:
# [1] = 298.15 K; for surface tension liquid-gas: Ring tensiometer; for mass density: 101.33 kPa, Liquid, Vibrating tube method
# [2] = xn = mol fraction of the nth substance listed; conditions: 298.15 K, Ring tensiometer
compound,measurement,setting,value
"CCOP(=O)([O-])OCC.CCn1cc[n+](CC)c1 [1,3-diethyl-1H-imidazol-3-ium diethyl phosphate]",surface tension liquid-gas,[1],35.5 ± 0.5 mN/m
same,mass density,[1],1125.96 ± 0.15 kg/m3
"COP(=O)([O-])OC.Cn1cc[n+](C)c1 [1,3-dimethylimidazolium dimethylphosphate]",surface tension liquid-gas,[1],48.4 ± 0.6 mN/m
same,mass density,[1],1252.6 ± 0.22 kg/m3
CCCCn1cc[n+](CC)c1.CCOP(=O)([O-])OCC [1-butyl-3-ethyl-1H-imidazol-3-ium diethyl phosphate],surface tension liquid-gas,[1],32.2 ± 0.5 mN/m
same,mass density,[1],1083.21 ± 0.1 kg/m3
CCCCn1cc[n+](C)c1.COP(=O)([O-])OC [1-butyl-3-methyl-1H-imidazolium dimethylphosphate],surface tension liquid-gas,[1],38 ± 0.5 mN/m
CCCCOP(=O)([O-])OCCCC.CCCCn1cc[n+](C)c1 [1-butyl-3-methylimidazolium dibutyl phosphate],surface tension liquid-gas,[1],29.4 ± 0.4 mN/m
same,mass density,[1],1046.18 ± 0.09 kg/m3
CCOP(=O)([O-])OCC.CCn1cc[n+](C)c1 [1-ethyl-3-methylimidazolium diethyl phosphate],surface tension liquid-gas,[1],37.1 ± 0.5 mN/m
same,mass density,[1],1148.86 ± 0.14 kg/m3
CCOP(=O)([O-])OCC.CCn1cc[n+](C)c1 [1-ethyl-3-methylimidazolium diethyl phosphate] + O,surface tension liquid-gas,[2]; x1 = 0.02,49.7 ± 1.4 mN/m
same,surface tension liquid-gas,[2]; x1 = 0.04,46.5 ± 0.6 mN/m
same,surface tension liquid-gas,[2]; x1 = 0.08,44.2 ± 0.6 mN/m
same,surface tension liquid-gas,[2]; x1 = 0.1,42.6 ± 0.6 mN/m
same,surface tension liquid-gas,[2]; x1 = 0.12,41.4 ± 0.6 mN/m
same,surface tension liquid-gas,[2]; x1 = 0.14,40.7 ± 0.6 mN/m
same,surface tension liquid-gas,[2]; x1 = 0.2,38.9 ± 0.5 mN/m
same,surface tension liquid-gas,[2]; x1 = 0.3,38 ± 0.5 mN/m
same,surface tension liquid-gas,[2]; x1 = 0.4,37.8 ± 0.5 mN/m
same,surface tension liquid-gas,[2]; x1 = 0.5,37.5 ± 0.5 mN/m
same,surface tension liquid-gas,[2]; x1 = 0.6,37.4 ± 0.5 mN/m
same,surface tension liquid-gas,[2]; x1 = 0.7,37.3 ± 0.5 mN/m
same,surface tension liquid-gas,[2]; x1 = 0.8,37.2 ± 0.5 mN/m
same,surface tension liquid-gas,[2]; x1 = 0.9,37.3 ± 0.5 mN/m
same,surface tension liquid-gas,[2]; x1 = 1,37.1 ± 0.5 mN/m
CCn1cc[n+](C)c1.COP(=O)([O-])OC [1-ethyl-3-methylimidazolium dimethylphosphate],surface tension liquid-gas,[1],44.3 ± 0.62 mN/m
CCn1cc[n+](C)c1.COP(=O)([O-])OC [1-ethyl-3-methylimidazolium dimethylphosphate] + CCO,surface tension liquid-gas,[2]; x1 = 0.1,22.9 ± 0.4 mN/m
same,surface tension liquid-gas,[2]; x1 = 0.2,24 ± 0.4 mN/m
same,surface tension liquid-gas,[2]; x1 = 0.3,25.5 ± 0.4 mN/m
same,surface tension liquid-gas,[2]; x1 = 0.4,27.5 ± 0.4 mN/m
same,surface tension liquid-gas,[2]; x1 = 0.5,29.5 ± 0.4 mN/m
same,surface tension liquid-gas,[2]; x1 = 0.6,31.7 ± 0.5 mN/m
same,surface tension liquid-gas,[2]; x1 = 0.7,34 ± 0.5 mN/m
same,surface tension liquid-gas,[2]; x1 = 0.8,36.5 ± 0.5 mN/m
same,surface tension liquid-gas,[2]; x1 = 0.9,39.3 ± 0.6 mN/m
same,surface tension liquid-gas,[2]; x1 = 1,44.3 ± 0.6 mN/m
CCn1cc[n+](C)c1.COP(=O)([O-])OC [1-ethyl-3-methylimidazolium dimethylphosphate] + CO,surface tension liquid-gas,[2]; x1 = 0.1,26.7 ± 0.4 mN/m
same,surface tension liquid-gas,[2]; x1 = 0.2,29.5 ± 0.4 mN/m
same,surface tension liquid-gas,[2]; x1 = 0.3,31.8 ± 0.5 mN/m
same,surface tension liquid-gas,[2]; x1 = 0.4,33.7 ± 0.5 mN/m
same,surface tension liquid-gas,[2]; x1 = 0.5,35.6 ± 0.5 mN/m
same,surface tension liquid-gas,[2]; x1 = 0.6,37 ± 0.5 mN/m
same,surface tension liquid-gas,[2]; x1 = 0.7,38.9 ± 0.6 mN/m
same,surface tension liquid-gas,[2]; x1 = 0.8,40.6 ± 0.6 mN/m
same,surface tension liquid-gas,[2]; x1 = 0.9,42.4 ± 0.6 mN/m
same,surface tension liquid-gas,[2]; x1 = 1,44.3 ± 0.6 mN/m
CCn1cc[n+](C)c1.COP(=O)([O-])OC [1-ethyl-3-methylimidazolium dimethylphosphate] + O,surface tension liquid-gas,[2]; x1 = 0.1,48.9 ± 0.69 mN/m
same,surface tension liquid-gas,[2]; x1 = 0.2,47 ± 0.63 mN/m
same,surface tension liquid-gas,[2]; x1 = 0.3,46.4 ± 0.62 mN/m
same,surface tension liquid-gas,[2]; x1 = 0.4,46.2 ± 0.62 mN/m
same,surface tension liquid-gas,[2]; x1 = 0.5,45.1 ± 0.61 mN/m
same,surface tension liquid-gas,[2]; x1 = 0.6,44.2 ± 0.6 mN/m
same,surface tension liquid-gas,[2]; x1 = 0.7,44.1 ± 0.61 mN/m
same,surface tension liquid-gas,[2]; x1 = 0.8,44.5 ± 0.62 mN/m
same,surface tension liquid-gas,[2]; x1 = 0.9,44.4 ± 0.62 mN/m
same,surface tension liquid-gas,[2]; x1 = 1,44.3 ± 0.62 mN/m
CCO [ethanol],surface tension liquid-gas,[1],21.9 ± 0.3 mN/m
same,mass density,[1],785.83 ± 0.17 kg/m3
CCO [ethanol] + CCCCOP(=O)([O-])OCCCC.CCCCn1cc[n+](C)c1,surface tension liquid-gas,[2]; x2 = 0,21.9 ± 0.3 mN/m
CCO [ethanol] + CCCCn1cc[n+](C)c1.COP(=O)([O-])OC,surface tension liquid-gas,[2]; x2 = 0,21.9 ± 0.3 mN/m
CCO [ethanol] + CCCCn1cc[n+](CC)c1.CCOP(=O)([O-])OCC,surface tension liquid-gas,[2]; x2 = 0,21.9 ± 0.3 mN/m
CCO [ethanol] + CCOP(=O)([O-])OCC.CCn1cc[n+](C)c1,surface tension liquid-gas,[2]; x2 = 0,21.9 ± 0.3 mN/m
CCO [ethanol] + CCOP(=O)([O-])OCC.CCn1cc[n+](CC)c1,surface tension liquid-gas,[2]; x2 = 0,21.9 ± 0.3 mN/m
CCO [ethanol] + CCn1cc[n+](C)c1.COP(=O)([O-])OC,surface tension liquid-gas,[2]; x2 = 0,21.9 ± 0.3 mN/m
CCO [ethanol] + COP(=O)([O-])OC.Cn1cc[n+](C)c1,surface tension liquid-gas,[2]; x2 = 0,21.9 ± 0.3 mN/m
CO [methanol],surface tension liquid-gas,[1],22.4 ± 0.3 mN/m
same,mass density,[1],786.55 ± 0.17 kg/m3
CO [methanol] + CCCCOP(=O)([O-])OCCCC.CCCCn1cc[n+](C)c1,surface tension liquid-gas,[2]; x2 = 0,22.4 ± 0.3 mN/m
CO [methanol] + CCCCn1cc[n+](C)c1.COP(=O)([O-])OC,surface tension liquid-gas,[2]; x2 = 0,22.4 ± 0.3 mN/m
CO [methanol] + CCCCn1cc[n+](CC)c1.CCOP(=O)([O-])OCC,surface tension liquid-gas,[2]; x2 = 0,22.4 ± 0.3 mN/m
CO [methanol] + CCOP(=O)([O-])OCC.CCn1cc[n+](C)c1,surface tension liquid-gas,[2]; x2 = 0,22.4 ± 0.3 mN/m
CO [methanol] + CCOP(=O)([O-])OCC.CCn1cc[n+](CC)c1,surface tension liquid-gas,[2]; x2 = 0,22.4 ± 0.3 mN/m
CO [methanol] + CCn1cc[n+](C)c1.COP(=O)([O-])OC,surface tension liquid-gas,[2]; x2 = 0,22.4 ± 0.3 mN/m
CO [methanol] + COP(=O)([O-])OC.Cn1cc[n+](C)c1,surface tension liquid-gas,[2]; x2 = 0,22.4 ± 0.3 mN/m
O [water],surface tension liquid-gas,[1],71.9 ± 0.9 mN/m
O [water] + CCCCOP(=O)([O-])OCCCC.CCCCn1cc[n+](C)c1,surface tension liquid-gas,[2]; x2 = 0,71.9 ± 0.9 mN/m
O [water] + CCCCn1cc[n+](C)c1.COP(=O)([O-])OC,surface tension liquid-gas,[2]; x2 = 0,71.9 ± 0.9 mN/m
O [water] + CCCCn1cc[n+](CC)c1.CCOP(=O)([O-])OCC,surface tension liquid-gas,[2]; x2 = 0,71.9 ± 0.9 mN/m
O [water] + CCOP(=O)([O-])OCC.CCn1cc[n+](C)c1,surface tension liquid-gas,[2]; x2 = 0,71.9 ± 0.9 mN/m
O [water] + CCOP(=O)([O-])OCC.CCn1cc[n+](CC)c1,surface tension liquid-gas,[2]; x2 = 0,71.9 ± 0.9 mN/m
O [water] + CCn1cc[n+](C)c1.COP(=O)([O-])OC,surface tension liquid-gas,[2]; x2 = 0,71.9 ± 0.91 mN/m
O [water] + COP(=O)([O-])OC.Cn1cc[n+](C)c1,surface tension liquid-gas,[2]; x2 = 0,71.9 ± 0.9 mN/m
